For 29 molecules, GI50 results are on record in patent US12655150B2 (Cedilla Therapeutics, Inc., priority 2021, dated 2026).

Some results are limits rather than exact numbers.

This experiment relates to NCI-H226. In words: 72H TEAD Proliferation Assay (Cell Titer Glo 2.0). The settings on record: Homo sapiens, NCI-H226, 72 h, CTG 2.0, cell line not given (NCI-H226 responsive, NCI-H28 non-responsive). It counts as cell-based. The protocol: 72H TEAD Proliferation Assay.
The effect of TEAD inhibition on cell proliferation was assayed using Cell Titer Glo (CTG) 2.0 to measure response in mesothelioma cell lines NCI-H226 (ATCC, #CRL-5826) and NCI-H28 (ATCC, #CRL-5820).
The 72H TEAD Proliferation assay utilizes Cell Titer-Glo 2.0 (Promega, #G9243) to measure the proliferation of cells in the presence or absence of compound. Cell Titer-Glo 2.0 determines the amount of viable cells by quantifying ATP (an indication of metabolically active cells). It utilizes the conversion of Luciferin to Oxyluciferin and a luminescent signal with the use of ATP to report the quantity of viable cells in culture. Within cells that are continually growing, ATP is being synthesized to meet their metabolic demands, meanwhile the opposite is true for cells that are dying or slowing down their proliferation and either no longer using ATP or are using less, respectively. The NF2-deficient NCI-H226 has been genetically validated as a cell line that is sensitive to TEAD inhibition. The NF2-wild type NCI-H28 has been genetically validated as a cell line that is not sensitive to TEAD inhibition and grows independently of TEAD activity.
Compounds were screened against the responsive NCI-H226 cell line to assess the compounds' ability to inhibit TEAD and cell growth. Compounds were also screened against the non-responsive NCI-H28 cell line to ascertain whether the inhibition of cell growth was due to inhibition of the target TEAD or whether the inhibition was due to off-target cytotoxicity.
• 1) Assay ready plates (ARPs) were prepared by Echo acoustic liquid handler. […] After CTG addition, plates were placed on shaker at 800 RPM for 15 minutes at room temperature and kept in the dark. Luminescence was measured using EnVision multilabel plate reader with ultra-sensitive detection module. • 9) Data Analysis: First background luminescence (no CTG wells) was subtracted from luminescence reading of all wells, then TO luminescence was subtracted from T72 luminescence. To compare anti-proliferative effect of compounds, GI50 was obtained by fitting dose response curves with nonlinear regression curve fit.
What is called GI50 is the concentration at which growth is held to half of that of the control. The low end stands for greater sensitivity of the cells, the high end for lower sensitivity of the cells. Turning to `C=CC(=O)NCc1cn2c(F)cnc2c(-c2ccc(C(F)(F)F)cc2)n1` [I-235, N-((3-fluoro-8-(4-(trifluoromethyl)phenyl)imidazo[1,2-a]pyrazin-6-yl)methyl)acrylamide], the GI50 is not above 1000 nM.

On to `C=CC(=O)NCc1cc2ccccc2c(-c2ccc(C(F)(F)F)nc2)n1` [I-302, N-((1-(6-(trifluoromethyl)pyridin-3-yl)isoquinolin-3-yl)methyl)acrylamide], for which the GI50 was not above 1000 nM.

Turning to `O=C(O)c1ccc2c(c1)nc(N1CCC(C(F)F)CC1)c1cccn12` [I-17, 4-(4-(Difluoromethyl)piperidin-1-yl)pyrrolo[1,2-a]quinoxaline-7-carboxylic acid], the GI50 fell in the range of 1000 to 5000 nM.

As to `CC(NC(=O)N1CCc2c(cccc2-c2ccc(C(F)(F)F)cc2)C1)c1ccccn1` (centres unmarked) [I-179, N-(1-(pyridin-2-yl)ethyl)-5-(4-(trifluoromethyl)phenyl)-3,4-dihydroisoquinoline-2(1H)-carboxamide], the GI50 is not above 1000 nM.

Take `COc1cc(-c2ccc(C(F)(F)F)cc2)nc2cc(C(=O)N[C@@H](C)c3cccc(O)c3)ccc12` [I-349, (S)—N-(1-(3-hydroxyphenyl)ethyl)-4-methoxy-2-(4-(trifluoromethyl)phenyl)quinoline-7-carboxamide]: the GI50 is not above 1000 nM.

In turn, `C=CC(=O)Nc1c(C)nc2c(-c3ccc(C(C)(C)C)cc3)nccn12` [I-257, N-(8-(4-(tert-butyl)phenyl)-2-methylimidazo[1,2-a]pyrazin-3-yl)acrylamide] showed a GI50 of 5000 to 10000 nM.

As to `CC[C@H](CO)NC(=O)c1ccc2c(OC)cc(-c3ccc(C(F)(F)F)cn3)nc2c1` [I-358, (R)—N-(1-hydroxybutan-2-yl)-4-methoxy-2-(5-(trifluoromethyl)pyridin-2-yl)quinoline-7-carboxamide], the GI50 is not above 1000 nM.

With `C=C(F)C(=O)NCc1cc2ccccc2c(-c2ccc(C(F)(F)F)cc2)n1` [I-168, 2-Fluoro-N-((1-(4-(trifluoromethyl)phenyl)isoquinolin-3-yl)methyl)acrylamide], the GI50 is not above 1000 nM.

Molecule `O=C(O)c1ccc2c(c1)nc(-c1ccc(C(F)(F)F)cc1F)c1nccn12` [I-60, 4-(2-Fluoro-4-(trifluoromethyl)phenyl)imidazo[1,2-a]quinoxaline-7-carboxylic acid] came in with a GI50 of 1000 to 5000 nM.

The molecule `O=C(O)c1ccc2c(c1)nc(NCCC(F)(F)F)c1cccn12` [I-107, 4-((3,3,3-Trifluoropropyl)amino)pyrrolo[1,2-a]quinoxaline-7-carboxylic acid] registered a GI50 of more than 10000 nM.

In turn, `C[C@H](CO)NC(=O)c1ccc2c(c1)nc(-c1ccc(C(C)(C)C)cc1)c1cccn12` [I-191, (R)-4-(4-(tert-butyl)phenyl)-N-(1-hydroxypropan-2-yl)pyrrolo[1,2-a]quinoxaline-7-carboxamide] came in with a GI50 not above 1000 nM.

Consider `O=C(O)c1ccc2c(c1)nc(-c1ccc(C(F)(F)F)nc1)c1cccn12` [I-51, 4-(6-(Trifluoromethyl)pyridin-3-yl)pyrrolo[1,2-a]quinoxaline-7-carboxylic acid], for which the GI50 lay within 1000 to 5000 nM.

`O=C(O)c1ccc2c(c1)nc(N1CCN(C3CC3)CC1)c1cccn12` [I-40, 4-(4-Cyclopropylpiperazin-1-yl) pyrrolo[1,2-a]quinoxaline-7-carboxylic acid] displayed a GI50 of 1000 to 5000 nM.

On to `O=C(O)c1ccc2c(c1)nc(N1CCC(C(F)(F)F)C1)c1cccn12` (centres unmarked) [I-10, 4-(3-(Trifluoromethyl)pyrrolidin-1-yl)pyrrolo[1,2-a]quinoxaline-7-carboxylic acid], for which the GI50 lay in the range of 1000 to 5000 nM.

Take `CC(C)c1cc(-c2ccc(C(F)(F)F)cc2)nc2cc(C(=O)N[C@H](C)CO)ccc12` [I-426, (R)—N-(1-hydroxypropan-2-yl)-4-isopropyl-2-(4-(trifluoromethyl)phenyl)quinoline-7-carboxamide]: the 50% growth inhibitory concentration (GI50) lay within 1000 to 5000 nM.

Consider `CN(CCCC(F)(F)F)c1nc2cc(C(=O)O)ccc2n2cccc12` [I-125, 4-(Methyl(4,4,4-trifluorobutyl)amino)pyrrolo[1,2-a]quinoxaline-7-carboxylic acid], for which the GI50 is more than 10000 nM.

In the case of `CC(C)(C)c1ccc(-c2nc3cc(NC(=O)CN)ccc3n3cccc23)cc1` [I-206, 2-Amino-N-(4-(4-(tert-butyl)phenyl)pyrrolo[1,2-a]quinoxalin-7-yl)acetamide], the GI50 lay within 1000 to 5000 nM.

With `C=CC(=O)N1CC(c2cn3ccnc3c(-c3ccc(C(F)(F)F)cc3)n2)C1` [I-245, 1-(3-(8-(4-(Trifluoromethyl)phenyl)imidazo[1,2-a]pyrazin-6-yl)azetidin-1-yl)prop-2-en-1-one], the GI50 is not above 1000 nM.

`COc1cc(-c2ccc(C(F)(F)F)cc2)nc2cc(C(=O)N[C@@H](CO)Cc3ccccc3)ccc12` [I-369, (R)—N-(1-hydroxy-3-phenylpropan-2-yl)-4-methoxy-2-(4-(trifluoromethyl)phenyl)quinoline-7-carboxamide] had a GI50 not above 1000 nM.

Consider `C=CC(=O)NCc1nc(-c2ccc(C(F)(F)F)cc2)c2ccncc2n1` [I-309, N-((4-(4-(trifluoromethyl)phenyl)pyrido[3,4-d]pyrimidin-2-yl)methyl)acrylamide], for which the GI50 was not above 1000 nM.

`O=C(/C=C/CF)NCc1cn2ccnc2c(-c2ccc(C(F)(F)F)cc2)n1` [I-214, (E)-4-fluoro-N-((8-(4-(trifluoromethyl)phenyl)imidazo[1,2-a]pyrazin-6-yl)methyl)but-2-enamide] showed a GI50 not above 1000 nM.

In turn, `O=C(O)c1ccc2c(c1)nc(-c1ccc(OC(F)F)cc1)c1cccn12` [I-193, 4-(4-(difluoromethoxy)phenyl)pyrrolo[1,2-a]quinoxaline-7-carboxylic acid] showed a GI50 of 1000 to 5000 nM.

For the molecule `C=CC(=O)NC1CCN(c2cn3ccnc3c(-c3ccc(C(F)(F)F)cc3)n2)C1` (centres unmarked) [I-227, N-(1-(8-(4-(trifluoromethyl)phenyl)imidazo[1,2-a]pyrazin-6-yl)pyrrolidin-3-yl)acrylamide], the GI50 was not above 1000 nM.

As for `C=CC(=O)NCc1nc(-c2ccc(C(F)(F)F)cc2F)c2ccccc2n1` [I-303, N-((4-(2-fluoro-4-(trifluoromethyl)phenyl)quinazolin-2-yl)methyl)acrylamide], the GI50 is not above 1000 nM.

`O=C(O)c1ccc2c(c1)nc(N1CCC3(CC1)CC3(F)F)c1cccn12` [I-36, 4-(1,1-Difluoro-6-azaspiro[2.5]octan-6-yl)pyrrolo[1,2-a]quinoxaline-7-carboxylic acid] gave a GI50 not above 1000 nM.

Consider `C=CC(=O)Nc1cn2ccnc2c(-c2ccc(C(C)(C)C)cc2)n1` [I-146, N-(8-(4-(tert-Butyl)phenyl)imidazo[1,2-a]pyrazin-6-yl)acrylamide], for which the 50% growth inhibitory concentration (GI50) fell in the range of 1000 to 5000 nM.

In the case of `CC[C@H](CO)NC(=O)c1ccc2c(OC)cc(-c3ccc(C(F)(F)F)cc3Cl)nc2c1` [I-341, (R)-2-(2-chloro-4-(trifluoromethyl)phenyl)-N-(1-hydroxybutan-2-yl)-4-methoxyquinoline-7-carboxamide], the concentration for 50% growth inhibition (GI50) is not above 1000 nM.

In the case of `COc1cc(-c2ccc(C(F)(F)F)cc2)nc2cc(C3(O)COC3)ccc12` [I-419, 3-(4-methoxy-2-(4-(trifluoromethyl)phenyl)quinolin-7-yl)oxetan-3-ol], the GI50 lay in the range of 1000 to 5000 nM.

With `CC(C)(C)c1ccc(-c2nc3cc(C(=O)O)ccc3n3cccc23)c(F)c1` [I-49, 4-(4-(tert-Butyl)-2-fluorophenyl)pyrrolo[1,2-a]quinoxaline-7-carboxylic acid], the GI50 is more than 10000 nM.
